Data reported in patent publication US10336768B2, “Pyrimidine compounds and methods using the same” (Yuma Therapeutics, Inc., priority 2014, dated 2019).
“And” between values parts separate entries of the source, which are not always exact repeats. Identical values can stand only once.

Columns and labels:
[1] = test system: tau; conditions: Corcoran et al., 2010; cited from earlier work
[2] = test system: Hsp70; experiment: Hsp90 cell based functional assay (Western blot for Hsp70, Hsp90); conditions: for Hsp 70 agonist activity: concentration at which Hsp70 is increased >2-fold: fold noted in cell: >2-fold; for Hsp 70 agonist activity: EC50 at which Hsp70 is increased two-fold: cells treated 24 h, Western blot; for EC50: read-out: Hsp 70 agonist activity; for Hsp 70 agonist activity, result in words: alternative result printed in the same cell
Protocol: Cells were treated with compounds of the invention for 24 h and then lysed in a buffer containing NP-40, orthovanadate, and protease inhibitors. Western blots were performed with antibodies specific to Hsp70, Hsp90, or actin (as control).

[3] = test system: T1, His-tagged-Hsp90; experiment: Hsp90 biochemical assay (AlphaLISA); assay type: binding; conditions: IC50 class; AlphaLISA (primary assay); read-out: Hsp90 inhibitory activity
T1 construct: fused on or other part: His tag (captured on Ni2+-coated beads)
Protocol: This assay employs biotinylated geldanamycin, His-tagged-Hsp90, and Ni^+2 coated beads. This assay is homogenous and miniaturized to 384-well plates. Measurement of binding activity was performed on an Envision reader. […] This assay is the primary assay for evaluating compounds of the invention.

[4] = biological target: truncated alpha-Hsp90 protein (Homo sapiens, UniProt P07900); experiment: Hsp90 biochemical assay (fluorescence polarization); assay type: binding; conditions: footnotes (1)-(9) of Table 3, read-out: Hsp90 FP assay result
Protocol: Hsp90 inhibitory activity of the compounds of the invention was assessed using a fluorescence polarization (FP) assay using FITC-labeled geldanamycin and truncated alpha-Hsp90 protein. Measurement of binding activity was performed on BMG CLARIOstar® reader (BMG Labtech, Ortenberg, Germany).

O=[Se](=O)(O)O [Sodium selenate]
efficacy in TMHT tau model [1]: effective in the TMHT tau model

Cc1cc(-c2c(Cl)cc(Cl)c3c2CCO3)nc(N)n1 [compound 5, 4-(5,7-Dichloro-2,3-dihydrobenzofuran-4-yl)-6-methylpyrimidin-2-amine]
Hsp 70 agonist activity: concentration at which Hsp70 is increased >2-fold [2]: >2 fold at 0.4-1.0 μM | IC50 [3]: < 1 µM

CCc1cc(-c2c(Cl)cc(Cl)c3c2CCO3)nc(N)n1 [compound 6, 4-(5,7-dichloro-2,3-dihydrobenzofuran-4-yl)-6-ethylpyrimidin-2-amine]
Hsp 70 agonist activity: EC50 at which Hsp70 is increased two-fold [2]: ≥10 µM | IC50 [3]: < 1 µM

CC(C)c1cc(-c2c(Cl)cc(Cl)c3c2CCO3)nc(N)n1 [compound 7, 4-(5,7-dichloro-2,3-dihydrobenzofuran-4-yl)-6-isopropylpyrimidin-2-amine]
EC50 [2]: > 10 µM | IC50 [4]: > 10 µM | IC50 [3]: < 1 µM

COc1cc(-c2c(Cl)cc(Cl)c3c2CCO3)nc(N)n1 [compound 8, 4-(5,7-dichloro-2,3-dihydrobenzofuran-4-yl)-6-methoxypyrimidin-2-amine]
EC50 [2]: > 10 µM | IC50 [4]: 5.5 µM and 6.2 µM | IC50 [3]: < 1 µM

COc1cc(-c2nc(N)nc(C)c2C)c(Cl)cc1Cl [compound 9, 4-(2,4-Dichloro-5-methoxyphenyl)-5,6-dimethylpyrimidin-2-amine]
Hsp 70 agonist activity: concentration at which Hsp70 is increased 1.5-fold ([2]; fold noted in cell: 1.5-fold): 1.5-fold at 1 μM | IC50 [4]: 1 µM and 1.4 µM | IC50 [3]: < 1 µM

Cc1nc(N)nc(-c2c(Cl)cc(Cl)c3c2CCO3)c1C [compound 10, 4-(5,7-Dichloro-2,3-dihydrobenzofuran-4-yl)-5,6-dimethylpyrimidin-2-amine]
Hsp 70 agonist activity: concentration at which Hsp70 is increased >2-fold [2]: >2-fold at 0.4 μM | IC50 [4]: 2.3 µM and 2.4 µM | IC50 [3]: < 1 µM

COc1cc(-c2nc(N)nc3c2CCC3)c(Cl)cc1Cl [compound 12, 4-(2,4-Dichloro-5-methoxyphenyl)-6,7-dihydro-5H-cyclopenta[d]pyrimidin-2-amine]
Hsp 70 agonist activity: concentration at which Hsp70 is increased >2-fold [2]: >2-fold at ≥10 μM | IC50 [4]: 1.7 µM | IC50 [3]: < 1 µM

Nc1nc2c(c(-c3c(Cl)cc(Cl)c4c3CCO4)n1)CCC2 [compound 13, 4-(5,7-Dichloro-2,3-dihydrobenzofuran-4-yl)-6,7-dihydro-5H-cyclopenta[d]pyrimidin-2-amine]
EC50 [2]: > 10 µM | IC50 [4]: 1.8 µM | IC50 [3]: < 1 µM

CN(C)CCOc1cc(-c2nc(N)nc3c2CCC3)c(Cl)cc1Cl [compound 14, 4-(2,4-dichloro-5-(2-(dimethylamino)ethoxy)phenyl)-6,7-dihydro-5H-cyclopenta[d]pyrimidin-2-amine]
Hsp 70 agonist activity: concentration at which Hsp70 is increased >2-fold [2]: >2-fold at 10 μM | IC50 [3]: < 1 µM

COc1cc(-c2nc(N)nc3cc[nH]c23)c(Cl)cc1Cl [compound 19, 4-(2,4-Dichloro-5-methoxyphenyl)-5H-pyrrolo[3,2-d]pyrimidin-2-amine]
Hsp 70 agonist activity: concentration at which Hsp70 is increased >2-fold [2]: >2-fold at 0.4-1 μM | IC50 [3]: < 1 µM

Cn1ccc2nc(N)nc(-c3c(Cl)cc(Cl)c4c3CCO4)c21 [compound 21, 4-(5,7-dichloro-2,3-dihydrobenzofuran-4-yl)-5-methyl-5H-pyrrolo[3,2-d]pyrimidin-2-amine]
EC50 [2]: > 10 µM | IC50 [3]: 1 to 4 µM

CCn1ccc2nc(N)nc(-c3c(Cl)cc(Cl)c4c3CCO4)c21 [compound 22, 4-(5,7-dichloro-2,3-dihydrobenzofuran-4-yl)-5-ethyl-5H-pyrrolo[3,2-d]pyrimidin-2-amine]
EC50 [2]: > 10 µM | IC50 [3]: 4 to 10 µM

CCOC(=O)c1cc2c(-c3c(Cl)cc(Cl)c4c3CCO4)nc(N)nc2s1 [compound 23, Ethyl-2-amino-4-(5,7-dichloro-2,3-dihydrobenzofuran-4-yl)thieno[2,3-d]pyrimidine-6-carboxylate]
Hsp 70 agonist activity: EC50 at which Hsp70 is increased two-fold [2]: 3.3 µM | IC50 [4]: 11.1 µM | IC50 [3]: 4 to 10 µM

CCNC(=O)c1cc2c(-c3c(Cl)cc(Cl)c4c3CCO4)nc(N)nc2s1 [compound 24, 2-amino-4-(5,7-dichloro-2,3-dihydrobenzofuran-4-yl)-N-ethylthieno[2,3-d]pyrimidine-6-carboxamide]
Hsp 70 agonist activity: EC50 at which Hsp70 is increased two-fold [2]: 0.4 µM | IC50 [3]: < 1 µM

COc1cc(-c2nc(N)nc3cc[nH]c23)c(Cl)cc1F [compound 25]
Hsp 70 agonist activity, result in words [2]: no observable effect | Hsp 70 agonist activity: fold increase of Hsp70 ([2]; concentration not given, alternative result: no observable effect): 1.5 fold | IC50 [4]: 12.1 µM and 19.3 µM | IC50 [3]: 4 to 10 µM

COc1cc(-c2nc(N)nc3ccn(C)c23)c(Cl)cc1F [compound 26]
Hsp 70 agonist activity, result in words [2]: no observable effect | Hsp 70 agonist activity: EC50 at which Hsp70 is increased two-fold [2]: 3.3 µM | IC50 [4]: 8.5 µM and 11.2 µM | IC50 [3]: 1 to 4 µM

CN(C)CCOc1cc(-c2nc(N)nc3cc[nH]c23)c(Cl)cc1Cl [compound 27]
Hsp 70 agonist activity: EC50 at which Hsp70 is increased two-fold [2]: 10 µM | IC50 [3]: 1 to 4 µM

NC(=O)c1cc2c(-c3c(Cl)cc(Cl)c4c3CCO4)nc(N)nc2s1 [compound 29]
Hsp 70 agonist activity: EC50 at which Hsp70 is increased two-fold [2]: 0.4 µM | IC50 [3]: < 1 µM

COc1nc(N)nc(-c2cc(OC)c(Cl)cc2Cl)n1 [compound 36]
Hsp 70 agonist activity: EC50 at which Hsp70 is increased two-fold [2]: >10 µM | IC50 [3]: < 1 µM

COc1cc(-c2cc(Cl)nc(N)n2)c(Cl)cc1Cl [compound 39]
Hsp 70 agonist activity: EC50 at which Hsp70 is increased two-fold [2]: 0.4 µM | IC50 [3]: < 1 µM
